Measured values reported in ChEMBL document CHEMBL3232722, “Synthesis and kinase inhibitory activity of new sulfonamide derivatives of pyrazolo[4,3-e][1,2,4]triazines” (Eur J Med Chem, 2014).
Calls of active or inactive are those of the source. The calls are words filed in the database; no cut-off is given here.

How the values were obtained:
[1] = target: T1, Tyrosine-protein kinase ABL1 (Homo sapiens, UniProt P00519); test: Inhibition of recombinant Abl kinase (unknown origin) expressed in Sf9 cells assessed as residual enzyme activity using GGEAIYAAPFKK as substrate at 25 uM in presence of [gamma33P]ATP
T1 sequence (P00519 whole entry): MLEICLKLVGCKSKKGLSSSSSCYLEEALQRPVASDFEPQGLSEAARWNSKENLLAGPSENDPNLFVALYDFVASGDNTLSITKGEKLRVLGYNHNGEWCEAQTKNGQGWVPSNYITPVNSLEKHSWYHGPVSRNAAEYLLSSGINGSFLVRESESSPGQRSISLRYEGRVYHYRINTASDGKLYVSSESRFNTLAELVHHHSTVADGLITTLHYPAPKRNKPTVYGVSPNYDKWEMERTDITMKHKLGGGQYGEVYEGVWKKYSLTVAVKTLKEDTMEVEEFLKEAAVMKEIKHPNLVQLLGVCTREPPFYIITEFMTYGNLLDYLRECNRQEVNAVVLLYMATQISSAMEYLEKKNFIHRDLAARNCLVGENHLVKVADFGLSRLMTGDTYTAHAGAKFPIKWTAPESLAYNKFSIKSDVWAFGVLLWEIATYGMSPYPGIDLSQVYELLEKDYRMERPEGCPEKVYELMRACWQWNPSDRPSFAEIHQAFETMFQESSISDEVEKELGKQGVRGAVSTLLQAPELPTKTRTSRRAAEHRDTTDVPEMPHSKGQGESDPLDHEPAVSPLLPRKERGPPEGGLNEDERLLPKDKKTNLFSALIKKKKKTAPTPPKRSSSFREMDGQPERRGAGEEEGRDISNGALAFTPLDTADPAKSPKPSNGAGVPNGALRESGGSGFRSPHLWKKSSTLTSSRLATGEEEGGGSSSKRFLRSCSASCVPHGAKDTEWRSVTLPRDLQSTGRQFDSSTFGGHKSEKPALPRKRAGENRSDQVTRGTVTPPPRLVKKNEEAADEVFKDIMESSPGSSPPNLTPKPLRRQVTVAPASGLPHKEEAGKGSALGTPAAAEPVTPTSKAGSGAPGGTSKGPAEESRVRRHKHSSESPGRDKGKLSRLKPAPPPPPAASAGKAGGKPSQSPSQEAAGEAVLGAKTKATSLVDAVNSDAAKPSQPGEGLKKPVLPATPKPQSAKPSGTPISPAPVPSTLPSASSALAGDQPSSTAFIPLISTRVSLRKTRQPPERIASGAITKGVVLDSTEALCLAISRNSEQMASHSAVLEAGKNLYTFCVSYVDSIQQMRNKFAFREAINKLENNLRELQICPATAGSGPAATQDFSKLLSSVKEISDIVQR

[2] = target: T1, Tyrosine-protein kinase ABL1; test: Inhibition of recombinant Abl kinase (unknown origin) expressed in Sf9 cells assessed as residual enzyme activity using GGEAIYAAPFKK as substrate at 10 uM in presence of [gamma33P]ATP
[3] = target: Casein kinase II subunit alpha (Homo sapiens, UniProt P68400); test: Inhibition of CK2alpha1 (unknown origin) using casein as substrate in presence of [gamma33P]ATP
Sequence of Casein kinase II subunit alpha (P68400 whole entry): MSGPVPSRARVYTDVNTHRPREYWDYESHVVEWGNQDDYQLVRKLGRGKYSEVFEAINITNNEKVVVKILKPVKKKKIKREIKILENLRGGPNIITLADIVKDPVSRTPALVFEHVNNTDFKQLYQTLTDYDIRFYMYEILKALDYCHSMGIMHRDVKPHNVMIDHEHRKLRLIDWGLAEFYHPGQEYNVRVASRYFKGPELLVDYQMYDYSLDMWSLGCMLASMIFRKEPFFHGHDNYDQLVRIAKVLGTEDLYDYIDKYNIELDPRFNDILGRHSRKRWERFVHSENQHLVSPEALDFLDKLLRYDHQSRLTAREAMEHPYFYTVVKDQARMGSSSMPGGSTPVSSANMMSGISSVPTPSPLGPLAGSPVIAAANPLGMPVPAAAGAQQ

[4] = target: T1, Tyrosine-protein kinase ABL1; test: Inhibition of recombinant Abl kinase (unknown origin) expressed in Sf9 cells using GGEAIYAAPFKK as substrate in presence of [gamma33P]ATP
[5] = tested on: MDA-MB-231; test: Cytostatic activity against human MDA-MB-231 cells assessed as decrease in [3H]thymidine incorporation into DNA after 24 hrs by liquid scintillation counting analysis; assay type: functional, cell-based
[6] = (§1) In vitro antiproliferative activity against human BV173 cells assessed as decrease in cell viability after 24 hrs by MTT assay; assay type: functional, cell-based; conditions: BV-173, 24 h
[7] = tested on: BV-173; test: as §1; assay type: functional, cell-based
[8] = tested on: MCF7; test: Cytostatic activity against human MCF7 cells assessed as decrease in [3H]thymidine incorporation into DNA after 24 hrs by liquid scintillation counting analysis; assay type: functional, cell-based
[9] = tested on: MDA-MB-231; test: In vitro antiproliferative activity against human MDA-MB-231 cells assessed as decrease in cell vaibility after 24 hrs by MTT assay; assay type: functional, cell-based; conditions: for IC50: MDA-MB-231, 24 h
[10] = tested on: HL-60; test: In vitro antiproliferative activity against human HL60 cells assessed as decrease in cell viability after 24 hrs by MTT assay; assay type: functional, cell-based; conditions: for IC50: HL-60, 24 h, read-out: IC50
[11] = target: T1, Tyrosine-protein kinase ABL1; test: Inhibition of recombinant Abl kinase (unknown origin) expressed in Sf9 cells assessed as residual enzyme activity using GGEAIYAAPFKK as substrate at 50 uM in presence of [gamma33P]ATP
[12] = tested on: CCRF-CEM; test: In vitro antiproliferative activity against human CCRF-CEM cells assessed as decrease in cell viability after 24 hrs by MTT assay; assay type: functional, cell-based
[13] = target: Cyclin-dependent kinase 2/cyclin E1 (Homo sapiens, UniProt P24941); test: Inhibition of CDK2/cyclin E (unknown origin) expressed in Sf9 cells using histone H1 as substrate in presence of [gamma33P]ATP
[14] = tested on: K562; test: In vitro antiproliferative activity against human K562 cells assessed as decrease in cell viability after 24 hrs by MTT assay; assay type: functional, cell-based; conditions: for IC50: K562, 24 h
[15] = tested on: MCF7; test: In vitro antiproliferative activity against human MCF7 cells assessed as decrease cell viability after 24 hrs by MTT assay; assay type: functional, cell-based; conditions: for IC50: MCF7, 24 h
[16] = target: T1, Tyrosine-protein kinase ABL1; test: Inhibition of Abl kinase tyrosine phosphorylation in human K562 cells at 1 to 100 uM after 1 hr by immunoblot analysis; assay type: cell-based
[17] = tested on: K562; test: Inhibition of tyrosine phosphorylation of protein with molecular weight between 40 and 60 kDa in human K562 cells at 1 to 100 uM after 1 hr by immunoblot analysis; assay type: functional, cell-based
[18] = tested on: K562; test: Induction of apoptosis in human K562 cells assessed as increase in sub-diploid cell population at 10 to 100 uM after 24 hrs by propidium iodide staining based flow cytometry; assay type: functional
[19] = target: T2, Bcr/Abl fusion protein (Homo sapiens) (UniProt P00519+P11274); test: Inhibition of Bcr/Abl kinase in human K562 cells assessed as decrease in STAT5 phosphorylation at Tyr694 after 1 hr by immunoblot analysis; assay type: cell-based
T2 sequence (P00519 whole entry, looked up, the tested form may be a part): as the sequence (P00519 whole entry) above
T2 sequence (P11274 whole entry, looked up, the tested form may be a part): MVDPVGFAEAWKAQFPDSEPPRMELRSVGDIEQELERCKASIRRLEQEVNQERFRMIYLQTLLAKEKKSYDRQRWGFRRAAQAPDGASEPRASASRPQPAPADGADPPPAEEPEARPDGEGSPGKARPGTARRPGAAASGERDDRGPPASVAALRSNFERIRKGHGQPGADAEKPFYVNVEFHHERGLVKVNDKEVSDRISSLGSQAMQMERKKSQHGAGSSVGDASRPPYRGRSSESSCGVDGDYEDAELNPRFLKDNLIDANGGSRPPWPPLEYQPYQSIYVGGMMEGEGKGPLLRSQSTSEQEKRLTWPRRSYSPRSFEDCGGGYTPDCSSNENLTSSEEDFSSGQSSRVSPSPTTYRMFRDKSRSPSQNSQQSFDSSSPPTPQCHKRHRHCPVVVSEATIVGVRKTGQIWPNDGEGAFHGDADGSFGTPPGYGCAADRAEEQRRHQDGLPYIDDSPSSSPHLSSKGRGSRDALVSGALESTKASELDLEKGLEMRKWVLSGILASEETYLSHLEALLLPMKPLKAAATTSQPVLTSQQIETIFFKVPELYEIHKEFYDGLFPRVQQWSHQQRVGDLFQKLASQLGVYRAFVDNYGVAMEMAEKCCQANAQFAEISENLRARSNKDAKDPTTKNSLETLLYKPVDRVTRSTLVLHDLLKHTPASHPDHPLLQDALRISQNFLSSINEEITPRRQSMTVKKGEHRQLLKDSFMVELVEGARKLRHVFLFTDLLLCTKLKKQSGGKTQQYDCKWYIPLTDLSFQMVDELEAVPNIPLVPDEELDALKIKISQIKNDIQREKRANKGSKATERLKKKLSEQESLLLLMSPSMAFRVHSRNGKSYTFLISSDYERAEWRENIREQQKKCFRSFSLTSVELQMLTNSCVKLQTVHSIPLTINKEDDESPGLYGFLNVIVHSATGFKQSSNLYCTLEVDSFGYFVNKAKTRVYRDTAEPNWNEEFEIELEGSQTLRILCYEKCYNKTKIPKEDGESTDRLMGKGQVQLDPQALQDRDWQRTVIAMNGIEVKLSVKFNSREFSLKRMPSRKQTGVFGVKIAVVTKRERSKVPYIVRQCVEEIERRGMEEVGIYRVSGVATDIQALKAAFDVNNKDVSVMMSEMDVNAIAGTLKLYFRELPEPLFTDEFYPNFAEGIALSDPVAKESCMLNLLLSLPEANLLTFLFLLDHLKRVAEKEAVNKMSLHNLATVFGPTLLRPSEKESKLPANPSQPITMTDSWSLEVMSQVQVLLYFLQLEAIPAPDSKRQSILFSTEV

[20] = target: T2, Bcr/Abl fusion protein (Homo sapiens); test: Inhibition of Bcr/Abl kinase tyrosine phosphorylation in human K562 cells at 1 to 100 uM after 1 hr by immunoblot analysis; assay type: cell-based

Row | SMILES | Activity [2] [%] | IC50 [3] [µM] | IC50 [4] [µM] | IC50 [5] [µM] | inhibition [5] | IC50 [6] [µM] | inhibition [7] | IC50 [8] [µM] | inhibition [8] | inhibition [9] | IC50 [9] [µM] | inhibition [10] | IC50 [10] [µM] | IC50 [12] [µM] | inhibition [12] | IC50 [13] [µM] | inhibition [14] | IC50 [14] [µM] | inhibition [15] | IC50 [15] [µM] | also measured
1 | Cc1nn(C)c2nnc(Nc3ccc(S(=O)(=O)NCC(O)CO)cc3)nc12 (stereo unspecified) | 81 | > 50 | 34 | 130 | Dose-dependent effect | 42 | Dose-dependent effect | 130 | Dose-dependent effect | Dose-dependent effect | 140 | Dose-dependent effect | 44 | 57 | Dose-dependent effect | > 50 | Dose-dependent effect | 101 | Dose-dependent effect | 200 | Activity [1]: 56%; Activity [11]: 45%
2 | Cc1nn(C)c2nnc(Nc3ccc(S(=O)(=O)N4CCN(C)CC4)cc3)nc12 | 60 | > 50 | > 50 | 80 | Dose-dependent effect | 40 | Dose-dependent effect | 87 | Dose-dependent effect | Dose-dependent effect | 99 | Dose-dependent effect | 49 | 36 | Dose-dependent effect | > 50 | Dose-dependent effect | 66 | Dose-dependent effect | 102 | Activity [1]: 55%; Activity [11]: 51%
3 | Cc1nn(C)c2nnc(Nc3ccc(S(=O)(=O)NCCO)cc3)nc12 |  | > 50 | 39 | > 200 | Dose-dependent effect | 41 | Dose-dependent effect | > 200 | Dose-dependent effect | Dose-dependent effect | > 200 | Dose-dependent effect | 42 | 49 | Dose-dependent effect | > 50 | Dose-dependent effect | 100 | Dose-dependent effect | > 200 | 
4 | O=C(O)CCCc1ccc(N(CCCl)CCCl)cc1 [CHLORAMBUCIL] |  |  |  | 49 |  | 34 |  | 56 |  |  | 93 |  | 38 | 21 |  |  |  | 84 |  | 97 | 
5 | Cc1nn(C)c2nnc(Nc3ccc(S(=O)(=O)N4CCCCC4)cc3)nc12 | 100 | > 25 | > 25 | 135 | Dose-dependent effect | 36 | Dose-dependent effect | 150 | Dose-dependent effect | Dose-dependent effect | 140 | Dose-dependent effect | 24 | 30 | Dose-dependent effect | > 25 | Dose-dependent effect | 98 | Dose-dependent effect | 200 | Activity [1]: 98%
6 | Cc1nn(C)c2nnc(Nc3ccc(S(=O)(=O)NC(CO)C(C)C)cc3)nc12 (stereo unspecified) | 80 | > 50 | > 50 | > 200 | Dose-dependent effect | 58 | Dose-dependent effect | > 200 | Dose-dependent effect | Dose-dependent effect | > 200 | Dose-dependent effect | 40 | 54 | Dose-dependent effect | > 50 | Dose-dependent effect | > 200 | Dose-dependent effect | > 200 | 
7 | Cc1nn(C)c2nnc(Nc3ccc(S(=O)(=O)N4CCCC4)cc3)nc12 | 100 | > 50 | > 50 | > 200 | Dose-dependent effect | 47 | Dose-dependent effect | > 200 | Dose-dependent effect | Dose-dependent effect | > 200 | Dose-dependent effect | 56 | 30 | Dose-dependent effect | > 50 | Dose-dependent effect | 102 | Dose-dependent effect | > 200 | Activity [1]: 100%; Activity [11]: 90%
8 | Cc1nn(C)c2nnc(Nc3ccc(S(=O)(=O)NCCN4CCOCC4)cc3)nc12 |  | > 50 | 20 | 120 | Dose-dependent effect | 39 | Dose-dependent effect | 99 | Dose-dependent effect | Dose-dependent effect | 125 | Dose-dependent effect | 41 | 64 | Dose-dependent effect | > 50 | Dose-dependent effect | 96 | Dose-dependent effect | 146 | 
9 | Cc1nn(C)c2nnc(Nc3ccc(S(=O)(=O)N4CCOCC4)cc3)nc12 | 88 | > 25 | > 25 | > 200 | Dose-dependent effect | 58 | Dose-dependent effect | > 200 | Dose-dependent effect | Dose-dependent effect | > 200 | Dose-dependent effect | 39 | 69 | Dose-dependent effect | > 25 | Dose-dependent effect | 90 | Dose-dependent effect | > 200 | Activity [1]: 80%
10 | Cc1nn(C)c2nnc(Nc3ccc(S(N)(=O)=O)cc3)nc12 | 95 | > 50 | 33 | > 200 | Dose-dependent effect | 45 | Dose-dependent effect | > 200 | Dose-dependent effect | Dose-dependent effect | > 200 | Dose-dependent effect | 58 | 50 | Dose-dependent effect | > 50 | Dose-dependent effect | 106 | Dose-dependent effect | > 200 | Activity [1]: 63%; Activity [11]: 33%
11 | Cc1nn(C)c2nnc(Nc3ccc(S(=O)(=O)NCCN)cc3)nc12 |  | > 50 | 15 | 90 | Dose-dependent effect | 39 | Dose-dependent effect | 85 | Dose-dependent effect | Dose-dependent effect | 120 | Dose-dependent effect | 42 | 56 | Dose-dependent effect | 34.9 | Dose-dependent effect | 77 | Dose-dependent effect | 126 | inhibition [16]: inactive; inhibition [17]: inactive; Activity [18]: inactive; inhibition [19]: Dose-dependent effect; inhibition [20]: inactive
12 | O=C(O)c1ccc2c(c1)nc(Nc1cccc(Cl)c1)c1ccncc12 [SILMITASERTIB] |  |  |  |  |  |  |  |  |  |  |  |  |  |  |  | 1.8 |  |  |  |  | 
